#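 Test compounds were applied to cells in 96-well plates for 48 hours at 5 doses. At the TGI there is no net growth.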
# Tests used:
# Test in all cases: NCI tumour cell line growth inhibition, 48 h
# A498 renal = test system: A498 renal
# CAKI-1 renal = test system: CAKI-1 renal
# CCRF-CEM leukemia = test system: CCRF-CEM leukemia
# COLO 205 colon = test system: COLO 205 colon
# DU-145 prostate = test system: DU-145 prostate
# HCC-2998 colon = test system: HCC-2998 colon
# HCT-116 colon = test system: HCT-116 colon
# HCT-15 colon = test system: HCT-15 colon
# HL-60(TB) leukemia = test system: HL-60(TB) leukemia
# HOP-62 NSCLC = test system: HOP-62 NSCLC
# HOP-92 NSCLC = test system: HOP-92 NSCLC
# HT29 colon = test system: HT29 colon
# IGROV1 ovarian = test system: IGROV1 ovarian
# K-562 leukemia = test system: K-562 leukemia
# KM12 colon = test system: KM12 colon
# M14 melanoma = test system: M14 melanoma
# MALME-3M melanoma = test system: MALME-3M melanoma
# MCF7 breast = test system: MCF7 breast
# MDA-MB-231 breast = test system: MDA-MB-231 breast
# MDA-MB-435 = test system: MDA-MB-435
# MDA-N = test system: MDA-N
# MOLT-4 leukemia = test system: MOLT-4 leukemia
# NCI-H226 lung = test system: NCI-H226 lung
# NCI-H23 lung = test system: NCI-H23 lung
# NCI-H460 lung = test system: NCI-H460 lung
# NCI-H522 lung = test system: NCI-H522 lung
# NCI/ADR-RES ovarian = test system: NCI/ADR-RES ovarian
# OVCAR-3 ovarian = test system: OVCAR-3 ovarian
# OVCAR-5 ovarian = test system: OVCAR-5 ovarian
# OVCAR-8 ovarian = test system: OVCAR-8 ovarian
# PC-3 prostate = test system: PC-3 prostate
# RPMI-8226 leukemia = test system: RPMI-8226 leukemia
# RXF 393 renal = test system: RXF 393 renal
# SF-295 CNS = test system: SF-295 CNS
# SK-MEL-2 melanoma = test system: SK-MEL-2 melanoma
# SK-MEL-28 melanoma = test system: SK-MEL-28 melanoma
# SK-MEL-5 melanoma = test system: SK-MEL-5 melanoma
# SK-OV-3 ovarian = test system: SK-OV-3 ovarian
# SNB-19 CNS = test system: SNB-19 CNS
# SNB-75 CNS = test system: SNB-75 CNS
# SR leukemia = test system: SR leukemia
# T-47D breast = test system: T-47D breast
# U251 CNS = test system: U251 CNS
# UACC-62 melanoma = test system: UACC-62 melanoma
# UO-31 renal = test system: UO-31 renal
# 786-0 renal = test system: 786-0 renal
# A549 NSCLC = test system: A549 NSCLC
# ACHN renal = test system: ACHN renal
# EKVX NSCLC = test system: EKVX NSCLC
# HS 578T breast = test system: HS 578T breast
# LOX IMVI melanoma = test system: LOX IMVI melanoma
# SF-268 CNS = test system: SF-268 CNS
# SF-539 CNS = test system: SF-539 CNS
# SN12C renal = test system: SN12C renal
# SW-620 colon = test system: SW-620 colon
# TK-10 renal = test system: TK-10 renal
# UACC-257 melanoma = test system: UACC-257 melanoma
# OVCAR-4 ovarian = test system: OVCAR-4 ovarian
smiles,measurement,setting,value
O=C(N=Nc1ccc(Br)cc1)NNc1ccc(Br)cc1,TGI,A498 renal,> 100 µM
same,TGI,CAKI-1 renal,52.9 µM
same,TGI,CCRF-CEM leukemia,18.2 µM
same,TGI,COLO 205 colon,48.9 µM
same,TGI,DU-145 prostate,> 100 µM
same,TGI,HCC-2998 colon,55.7 µM
same,TGI,HCT-116 colon,31.3 µM
same,TGI,HCT-15 colon,58.2 µM
same,TGI,HL-60(TB) leukemia,> 100 µM
same,TGI,HOP-62 NSCLC,32.6 µM
same,TGI,HOP-92 NSCLC,30.7 µM
same,TGI,HT29 colon,33.1 µM
same,TGI,IGROV1 ovarian,64.7 µM
same,TGI,K-562 leukemia,25 µM
same,TGI,KM12 colon,35.1 µM
same,TGI,M14 melanoma,31.8 µM
same,TGI,MALME-3M melanoma,87.1 µM
same,TGI,MCF7 breast,40.8 µM
same,TGI,MDA-MB-231 breast,47.2 µM
same,TGI,MDA-MB-435,46.1 µM
same,TGI,MDA-N,64.7 µM
same,TGI,MOLT-4 leukemia,26 µM
same,TGI,NCI-H226 lung,47.1 µM
same,TGI,NCI-H23 lung,68.9 µM
same,TGI,NCI-H460 lung,44 µM
same,TGI,NCI-H522 lung,31 µM
same,TGI,NCI/ADR-RES ovarian,43.3 µM
same,TGI,OVCAR-3 ovarian,30.5 µM
same,TGI,OVCAR-5 ovarian,57.1 µM
same,TGI,OVCAR-8 ovarian,> 100 µM
same,TGI,PC-3 prostate,31.9 µM
same,TGI,RPMI-8226 leukemia,78 µM
same,TGI,RXF 393 renal,28.7 µM
same,TGI,SF-295 CNS,> 100 µM
same,TGI,SK-MEL-2 melanoma,37.9 µM
same,TGI,SK-MEL-28 melanoma,64.5 µM
same,TGI,SK-MEL-5 melanoma,26.9 µM
same,TGI,SK-OV-3 ovarian,74 µM
same,TGI,SNB-19 CNS,> 100 µM
same,TGI,SNB-75 CNS,61.9 µM
same,TGI,SR leukemia,> 100 µM
same,TGI,T-47D breast,> 100 µM
same,TGI,U251 CNS,34.7 µM
same,TGI,UACC-62 melanoma,27.2 µM
same,TGI,UO-31 renal,65.2 µM
Cc1ccc(Nc2nc(C)c(C(=O)CC(=O)C(=O)Nc3ccc(Cl)cc3)s2)cc1,TGI,786-0 renal,> 100 µM
same,TGI,A498 renal,> 100 µM
same,TGI,A549 NSCLC,> 100 µM
same,TGI,ACHN renal,> 100 µM
same,TGI,CAKI-1 renal,> 100 µM
same,TGI,CCRF-CEM leukemia,> 100 µM
same,TGI,COLO 205 colon,> 100 µM
same,TGI,DU-145 prostate,> 100 µM
same,TGI,EKVX NSCLC,> 100 µM
same,TGI,HCC-2998 colon,> 100 µM
same,TGI,HCT-116 colon,> 100 µM
same,TGI,HCT-15 colon,> 100 µM
same,TGI,HL-60(TB) leukemia,> 100 µM
same,TGI,HOP-62 NSCLC,> 100 µM
same,TGI,HOP-92 NSCLC,> 100 µM
same,TGI,HS 578T breast,> 100 µM
same,TGI,IGROV1 ovarian,> 100 µM
same,TGI,K-562 leukemia,> 100 µM
same,TGI,KM12 colon,> 100 µM
same,TGI,LOX IMVI melanoma,> 100 µM
same,TGI,M14 melanoma,> 100 µM
same,TGI,MALME-3M melanoma,> 100 µM
same,TGI,MCF7 breast,> 100 µM
same,TGI,MDA-MB-231 breast,> 100 µM
same,TGI,MDA-MB-435,> 100 µM
same,TGI,MDA-N,> 100 µM
same,TGI,MOLT-4 leukemia,> 100 µM
same,TGI,NCI-H23 lung,> 100 µM
same,TGI,NCI-H460 lung,> 100 µM
same,TGI,NCI-H522 lung,> 100 µM
same,TGI,OVCAR-3 ovarian,> 100 µM
same,TGI,OVCAR-5 ovarian,> 100 µM
same,TGI,PC-3 prostate,> 100 µM
same,TGI,RPMI-8226 leukemia,> 100 µM
same,TGI,RXF 393 renal,> 100 µM
same,TGI,SF-268 CNS,> 100 µM
same,TGI,SF-295 CNS,> 100 µM
same,TGI,SF-539 CNS,> 100 µM
same,TGI,SK-MEL-2 melanoma,> 100 µM
same,TGI,SK-MEL-28 melanoma,> 100 µM
same,TGI,SK-MEL-5 melanoma,> 100 µM
same,TGI,SK-OV-3 ovarian,> 100 µM
same,TGI,SN12C renal,> 100 µM
same,TGI,SNB-19 CNS,> 100 µM
same,TGI,SNB-75 CNS,> 100 µM
same,TGI,SR leukemia,> 100 µM
same,TGI,SW-620 colon,> 100 µM
same,TGI,T-47D breast,> 100 µM
same,TGI,TK-10 renal,> 100 µM
same,TGI,U251 CNS,> 100 µM
same,TGI,UACC-257 melanoma,> 100 µM
same,TGI,UACC-62 melanoma,> 100 µM
same,TGI,UO-31 renal,> 100 µM
C=C(CN(C)C)C1(c2ccccc2)CC2(CCCC2)C(=O)O1 (centres undefined),TGI,786-0 renal,> 100 µM
same,TGI,A498 renal,> 100 µM
same,TGI,A549 NSCLC,> 100 µM
same,TGI,ACHN renal,> 100 µM
same,TGI,CAKI-1 renal,> 100 µM
same,TGI,CCRF-CEM leukemia,53.4 µM
same,TGI,COLO 205 colon,74.7 µM
same,TGI,DU-145 prostate,> 100 µM
same,TGI,EKVX NSCLC,> 100 µM
same,TGI,HCC-2998 colon,> 100 µM
same,TGI,HCT-116 colon,> 100 µM
same,TGI,HCT-15 colon,> 100 µM
same,TGI,HL-60(TB) leukemia,53.8 µM
same,TGI,HOP-62 NSCLC,> 100 µM
same,TGI,HOP-92 NSCLC,56.1 µM
same,TGI,HS 578T breast,> 100 µM
same,TGI,HT29 colon,74.7 µM
same,TGI,IGROV1 ovarian,> 100 µM
same,TGI,K-562 leukemia,> 100 µM
same,TGI,KM12 colon,> 100 µM
same,TGI,LOX IMVI melanoma,> 100 µM
same,TGI,M14 melanoma,> 100 µM
same,TGI,MALME-3M melanoma,> 100 µM
same,TGI,MCF7 breast,> 100 µM
same,TGI,MDA-MB-231 breast,> 100 µM
same,TGI,MDA-MB-435,> 100 µM
same,TGI,MDA-N,> 100 µM
same,TGI,MOLT-4 leukemia,78.1 µM
same,TGI,NCI-H226 lung,> 100 µM
same,TGI,NCI-H23 lung,82.4 µM
same,TGI,NCI-H460 lung,> 100 µM
same,TGI,NCI-H522 lung,47.5 µM
same,TGI,OVCAR-3 ovarian,> 100 µM
same,TGI,OVCAR-4 ovarian,> 100 µM
same,TGI,OVCAR-5 ovarian,> 100 µM
same,TGI,OVCAR-8 ovarian,> 100 µM
same,TGI,PC-3 prostate,> 100 µM
same,TGI,RPMI-8226 leukemia,> 100 µM
same,TGI,RXF 393 renal,> 100 µM
same,TGI,SF-268 CNS,> 100 µM
same,TGI,SF-295 CNS,> 100 µM
same,TGI,SF-539 CNS,> 100 µM
same,TGI,SK-MEL-2 melanoma,> 100 µM
same,TGI,SK-MEL-28 melanoma,> 100 µM
same,TGI,SK-MEL-5 melanoma,> 100 µM
same,TGI,SK-OV-3 ovarian,> 100 µM
same,TGI,SN12C renal,> 100 µM
same,TGI,SNB-19 CNS,> 100 µM
same,TGI,SNB-75 CNS,> 100 µM
same,TGI,SW-620 colon,> 100 µM
same,TGI,T-47D breast,> 100 µM
same,TGI,TK-10 renal,> 100 µM
same,TGI,U251 CNS,> 100 µM
same,TGI,UACC-257 melanoma,> 100 µM
same,TGI,UACC-62 melanoma,> 100 µM
same,TGI,UO-31 renal,62.9 µM

# Reference: PubChem BioAssay (NCI)
